Results from patent US20070110734A9, “Methods and compositions using cellular asialodeterminants and glycoconjugates for targeting cells to tissues and organs” (Department of Veterans Affairs, Rehabilitation R&D Service, priority 2002, published 2007).
“Also recorded” adds a separate entry of the source.

What was measured:
[1] = tested on: human CD34+ (hCD34+) peripheral blood stem cells; assay: In vivo trafficking of 111In-labeled human CD34+ stem cells (HSC) after glycoprotein infusion, gamma camera imaging; set-up: species or system NOD-SCID mice; conditions: for % Infused Cells in Liver/Spleen: 5.75×10^6 HSC preceded by 5.5 mg orosomucoid i.v.; for organ localization of infused hematopoietic (CD34+) stem cells, in words: cells preceded by infusion of the protein, jugular vein, immunodeficient mice
Procedure: Intravenous cannulas were placed into the external jugular vein of NOD-SCID mice under anesthesia (Institutional Animal Care and Use Committee protocol #AM87046-07) to enable the efficient delivery of ^111In-labeled stem cells i.v. Tylenol elixir was administered by mouth after recovery from anesthesia. Briefly radiolabeled CD34+ cells were taken up in 100-250 ul of 5% human plasma albumin in saline and injected into the cannula and then flushed with 50 ul of the albumin-saline. The mice were imaged by nuclear medicine.
Mice: NOD-SCID, female mice (Nonobese diabetic/LtSz-scid/scid) were obtained from the Jackson Laboratory, Bar Harbor, Me. at 1-2 months of age. These animals were maintained in microisolator cages in a special isolator room. The air was HEPA filtered, and the animals were changed in a laminar flow hood within the facility. All food, bedding, and water was sterilized. […] See, e.g. Hogan, et al., Biology of Blood & Marrow Transplantation 3:236-246 (1997); Noort, et al., Bone Marrow Transplantation 22 Suppl 1:S58-60 (1998).
(§1) ^111Indium Oxine Labeling Procedure: ^111In-oxine labeling of adult human CD34+ or mesenchymal stem cells (hMSCs) was performed using a modification of the Amersham Healthcare Procedure for labeling autologous leukocytes.
(§2) Imaging procedures: Nuclear Medicine. NOD-SCID mice were anesthetized using rodent anesthesia cocktail. Once anesthetized, the mice were placed on a foam hemi-cylindrical mouse positioning device (MPD) and covered with a tube sock. The MPD allows better visual separation of the lungs and liver as compared to placing the mouse on a flat surface. The foam on which the mouse was placed, and the tube sock covering maintained a comfortable temperature permitting longer imaging without additional anesthesia. The MPD was placed on a narrow table between the dual heads of a Siemens E.Cam Gamma Camera and imaged statically or dynamically in 2-D or SPECT. ^57Co-Spot Marker is used to mark anatomic positions (nose, tail, cannula, etc.). The data was analyzed using a Siemens ICON system for regions of interest or percent of injected dose (e.g. liver, spleen, heart).
(§3) Gamma camera imaging using a Siemens E. Cam dual head gamma camera monitored the in vivo trafficking patterns of all human stem cells described in the following examples. Mice were placed on a Mouse Positioning Device (MPD) and placed between the detectors on the imaging platform.
5.75×10^6 111In-labeled human CD34+ (hCD34+) peripheral blood stem cells were administered intravenously (i.v.) via an external jugular vein cannula to 2 month old, NOD-SCID, female mice (Non-obese diabetic/LtSz-scid/scid) obtained from the Jackson Laboratory, Bar Harbor, Me. The radiolabeled CD34+ stem cells were administered after pretreatment of the mouse with 3.3 mg of asialoorosomucoid (ASO) i.v. The in vivo trafficking patterns were followed by gamma camera imaging using a Siemens E.Cam dual head gamma camera from immediately after injection up to 36 hr postinfusion. Human CD34+ were isolated from apheresis stem cell collection products derived from deceased cancer patients. They were purified to 95-99% purity using antibody conjugated to CD34 conjugated to magnetics beads (MACS) separation columns; Miltenyi Biotec, Auburn, Calif. and cryopreserved.
5.75×10^6 111In-labeled human CD34+ (hCD34+) peripheral blood stem cells were administered intravenously (i.v.) via an external jugular vein cannula to 2 month old, NOD-SCID, female mice (Non-obese diabetic/LtSz-scid/scid) obtained from the Jackson Laboratory, Bar Harbor, Me. The radiolabeled CD34+ stem cells were administered after pretreatment of the mouse with 5.5 mg of orosomucoid (O) i.v.
The preparation and procedures set forth in Example I were repeated. […]

[2] = tested on: human CD34+ (hCD34+) peripheral blood stem cells; assay: as above; set-up: species or system NOD-SCID mice; conditions: 0.5×10^6 HSC preceded by 11 mg orosomucoid i.v.
[3] = tested on: human mesenchymal stem cells (MSC); assay: In vivo trafficking of 111In-labeled human mesenchymal stem cells (MSC) after glycoprotein infusion, gamma camera imaging; set-up: species or system NOD-SCID mice; conditions: for % Infused Cells in Heart: 0.56×10^6 MSC preceded by 11 mg orosomucoid i.v.
Procedure: Human mesenchymal stem cells (hMSCs; PT-2501) obtained through a FDA monitored paid bone marrow donor program were purchased from Poietics Technologies, BioWhittaker (Walkerville, Md.). The cells were thawed according to manufacturer recommendations, resuspended, and radiolabeled in Mesenchymal Stem Cell Basal Medium (MSCBM).
as §1, §2, §3
MSC were obtained from BioWhittaker, (Poietics Division, cryopreserved PT-2501 >750,000 cells per ampoule) and labeled with ^111In as in previous examples, except that the MSC were labeled, washed, and injected in Basal Stem Cell Medium (Poietics) containing 5% human serum albumin (HSA). 0.56×10^6 111In labeled, human mesenchymal stem cells (MSC) were administered via an implanted Da Vinci Microport Vascular System cannula in the external jugular vein of a two-month old, female NOD-SCID mouse in 0.21 ml of basal stem cell medium containing 5% human serum albumin (HSA). Immediately prior to administration of MSC, 11.0 mg of orosomucoid was administered i.v. in 0.2 ml.
0.56×10^6 “In-labeled, MSC were administered i.v. in 0.21 ml of basal stem cell medium containing 5% human serum albumin (HSA). Prior to administration of MSC, 0.1 ml containing 4.3 mg of ASO, followed by 0.1 ml containing 5.5 mg orosomucoid were administered i.v. The ASO, orosomucoid and MSC were administered via an implanted Da Vinci Microport Vascular system cannula in the external jugular vein of a two-month old, female NOD-SCID mouse.

CAKI-2 (ASGPR−) = assay: Adherence of NK/LAK activity to CAKI-2 monolayers at 23° C; assay type: cell-based, human; conditions: 23° C; 200 μg/ml
Procedure: (§4) This experiment is the same as above, except that the adherence to monolayers was performed at 23° C. and not 4° C., for 2 hours. Two monolayers were used: HEPG2, an ASGPR+ cell line, and CAKI-2 (human renal cell carcinoma), an ASGPR− cell line. The effector cell populations that were used were: an untreated 3-day old LAK preparation (LAK) and the same population treated with Vibrio cholera neuraminidase (LAK/NS) (30 mU/1×10^7 cells/200 μl). The neuraminidase-treated population was the asialopositive lymphocyte control. All cell populations regardless of treatment were greater than 90% viable at the time of assay. Each type of effector population was incubated with media alone, 200 μg/ml ASF or F, as controls. All effectors were assayed on RAJI (LAK-sensitive target; NK-insensitive target) or K562 (NK/LAK-sensitive target); the E:T ratios and the graphic presentation are the same above.
(§5) Five-day LAK preparations (20 U/ml; 1 Dupont unit=44.5 BRMP units) grown in AIM-V (Gibco) were treated (according to the protocols in B. 1.2.3 & 1.2.4) with 3 OmU Vibric Cholera neuramindase, 0.48 mU 2,3-or 10 mu 2,6-silalyltransferase per 107 cells. Some of the effectors were incubated in media, 10% PBS in RPMJ 1640 at 23° C. for 2 hours. 2×107 effectors from the untreated LALK, neuramithdase-treated LAK, LAK treated with 2,3 or 2,6 were suspended in 15 ml media and placed onto either HEPG2 (ASGPR+) or CAKI-2 (ASGPR−) monolayers at 23° C. for 2 hours. The flasks were rocked every 15 minutes. The nonadherent cells from these monolayers were decanted and assayed against K562 and RAJI, in addition to the unadhered controls. The E:T ratios used were 40, 20, 10, and 5 to 1.

[4] = tested on: RAJI (LAK-sensitive target; NK-insensitive target); assay: Cytotoxic capacity of LAK effectors in 51Cr-release assay on RAJI; assay type: cell-based, human
Procedure: (§6) Control cells (no IL-2 treatment) or LAK cells (IL-2-treated human peripheral blood lymphocytes cultured 10U IL-2/ml for 3 days) were adhered to a monolayer of HEP G2 cells for 2 hours at 4° C. The monolayer was pretreated either with asialofetuin (ASF, 200 μg/ml) in media or with fetuin (F, control, 200 μg/ml)) in media. After the Control or LAK cells had been incubated on the monolayer, these cells were then decanted, washed, and tested for cytotoxic capacity in a ^51Cr-release assay against the NK-resistant target, Raji.
as §4, §5

HEPG2 (ASGPR+) [5] = assay: Adherence of NK/LAK activity to HEPG2 monolayers at 23° C; assay type: cell-based, human; conditions: 23° C, 200 μg/ml
Procedure: as §4, §5

Caki-2 Targets [6] = assay: 51Cr-release assay of LAK effectors against CAKI-2 with agent added; assay type: cell-based, human; conditions: for % 51Chromium Release from Caki-2 Targets: agent 250 μg per well, 5-day LAK, 4-hour incubation
Source text: A working hypothesis is that LAK/NK cells bind to HEPG2 via at least two receptors or recognition structures: 1) the ASGPR, which binds an asialodeterminant on the LAK/NK population and 2) the “LAK” or “NK” recognition structure for a target epitope. The first should be inhibitable by ASF; the second should not be. Binding to CAKI-2 (ASGPR−) should not be inhibited by ASF and is due to a LAK or NK recognition structure binding to the target epitope. This can be further supported by data derived from experiments (see below) in which 250 μg/well of ASF or F were added to the ^51Cr-release assay of LAK effectors against the labeled target CAKI-2.
(% SPECIFIC RELEASE was determined from quadruplicates whose raw counts per minute differed by less than 10 percent; the assay was a standard 4-hour incubation.)

Caki-2 Targets [7] = assay: as above; assay type: cell-based, human; conditions: concentration of 1 mg/ml
HEPG2 (ASGPR+) [8] = assay: Adherence of NK/LAK activity to HEPG2 monolayers at 4° C; assay type: cell-based, human; conditions: monolayer pretreated with 200 μg/ml protein, 2 hours at 4° C, assayed on Raji
Procedure: as §6

[9] = tested on: K562 (NK/LAK-sensitive target); assay: Cytotoxic capacity of IL-2 activated NK effectors in 51Cr-release assay on K562; assay type: cell-based, human; conditions: 200 μg/ml; 23° C
Procedure: as §4, §5

In the case of “alpha-(1)-acid glycoprotein [Orosomucoid]”, the “111In-labeled cells in the region of the heart, in words” value ([1]; 5.75×10^6 HSC after 5.5 mg orosomucoid i.v., up to 36 hours) is reported as “No ^111In-labeled cells were found in the region of the heart”, the “% Infused Cells in Liver/Spleen” value ([1]; 1.5 hr) is reported as 74 ± 4% at 1.5 hr and the “% Infused Cells in Liver/Spleen” value ([1]; 1.5 hr, listed as orosomucoid) is reported as 74±4%. The “% Infused Cells in Liver/Spleen” value ([1]; 24 hr) was 63 ± 1% at 24 hr, the “% Infused Cells in Liver/Spleen” value ([1]; 24 hr, listed as O) was 63.6% and the “% Infused Cells in Liver/Spleen” value ([1]; 24 hr, listed as orosomucoid) was 63±1%. For the same substance, the “% Infused Cells in Liver/Spleen” value ([1]; immediately after infusion (0 hr)) was 74 ± 3% at 0 hr, the “% Infused Cells in Liver/Spleen” value ([1]; immediately after infusion (0 hr), listed as O) was 76.3% and the “% Infused Cells in Liver/Spleen” value ([1]; immediately after infusion (0 hr), listed as orosomucoid) was 74±3%. For the same substance, the “organ localization of infused hematopoietic (CD34+) stem cells, in words” value ([1]; listed as O) was “migrated immediately to the liver/spleen area”, the “organ localization of infused hematopoietic (CD34+) stem cells, in words” value ([1]; listed as orosomucoid (O)) was “localize in the liver” and the “% of infused cells in the liver region” value ([2]; 1 hr) was 40±3%. For the same substance, the “% of infused cells in the liver and spleen” value ([2]; immediately after infusion) was 43±2%, the “% Infused Cells in Heart” value ([3]; 0 hr) was 68 ± 7% at 0 hr and the “% Infused Cells in Heart” value ([3]; 0 hr, listed as orosomucoid) was 68±7%. For the same substance, the “% Infused Cells in Heart” value ([3]; 1 hr) was 61 ± 3% at 1 hr, the “% Infused Cells in Heart” value ([3]; 1 hr, listed as orosomucoid) was 61±3% and the “organ localization of infused mesenchymal stem cells, in words” value ([3]; cells preceded by infusion of the protein, jugular vein, immunodeficient mice) was “predominantly localize in the heart”.

asialofetuin [ASF] was tested, and the “inhibition of adherence to CAKI-2 of IL-2 activated NK or LAK activity” value (CAKI-2 (ASGPR−)) was “could not be inhibited; also recorded: cannot be blocked”, the “activity of LAK or Control preparations incubated with the protein alone versus untreated LAK” value ([4]; 200 μg/ml for 2 h at 40C, no monolayer) was “identical activity” and the “ability of effectors (LAK or LAK/NS) to kill RAJI after preincubation with the protein” value ([4]; 200 μg/ml, 23° C) was “does not affect”. For the same substance, the “inhibition of adherence to HEPG2 of LAK activity (assayed on RAJI)” value (HEPG2 (ASGPR+) [5]) was “could not be inhibited; also recorded: cannot be inhibited”, the “inhibition of adherence of LAK activity of the neuraminidase-treated population to HEPG2” value (HEPG2 (ASGPR+) [5]; assayed on RAJI) was “only marginally be inhibited” and the “inhibition of adherence to HEPG2 of IL-2 activated NK (assayed on K562)” value (HEPG2 (ASGPR+) [5]; with or without neuraminidase treatment) was “partially inhibited”. For the same substance, the “% 51Chromium Release from Caki-2 Targets” value (Caki-2 Targets [6]; E:T 5:1) was 13%, the “% 51Chromium Release from Caki-2 Targets” value (Caki-2 Targets [6]; E:T 10:1) was 24% and the “% 51Chromium Release from Caki-2 Targets” value (Caki-2 Targets [6]; E:T 20:1) was 41%. For the same substance, the “% 51Chromium Release from Caki-2 Targets” value (Caki-2 Targets [6]; E:T 40:1) was 52%, the “blocking of LAK killing of the tumor target CAKI-2, in words” value (Caki-2 Targets [6]; preincubation of targets and addition to the assay at 250 μg per well) was “does not block” and the “inhibition of the ability of LAK to kill CAKI-2 target, in words” value (Caki-2 Targets [7]) was “did not inhibit”. For the same substance, the “adherence of LAK activity to HEPG2 monolayer, in words” value (HEPG2 (ASGPR+) [8]) was “virtually all LAK activity can be inhibited from adhering”, the “adherence of LAK activity to HEPG2 monolayer, in words” value (HEPG2 (ASGPR+) [8]; listed as asialofetuin) was “not removed; also recorded: does not adhere” and the “ability of effectors (LAK or LAK/NS) to kill K562 after preincubation with the protein” value [9] was “does not affect”.
